# Source: PubChem BioAssay AID624009 (Vanderbilt Specialized Chemistry Center, 2012)
# Active and inactive are the calls of the source. No rule for the calls is given here.
# Target: Phospholipase D2 (Homo sapiens) + Phospholipase D2 (Homo sapiens) (UniProt O14939+O14939)
# Assay: cellular PLD2 inhibitors, cell-based, HEK293 overexpressing PLD2, Lib32, assay 1B (AID 624009)
# Conditions: HEK293 cells overexpressing PLD2, cellular PLD activity; hits give low values; concentration not given here
# Phospholipase D2 (Homo sapiens) + Phospholipase D2 (Homo sapiens), sequence (O14939 whole entry, looked up): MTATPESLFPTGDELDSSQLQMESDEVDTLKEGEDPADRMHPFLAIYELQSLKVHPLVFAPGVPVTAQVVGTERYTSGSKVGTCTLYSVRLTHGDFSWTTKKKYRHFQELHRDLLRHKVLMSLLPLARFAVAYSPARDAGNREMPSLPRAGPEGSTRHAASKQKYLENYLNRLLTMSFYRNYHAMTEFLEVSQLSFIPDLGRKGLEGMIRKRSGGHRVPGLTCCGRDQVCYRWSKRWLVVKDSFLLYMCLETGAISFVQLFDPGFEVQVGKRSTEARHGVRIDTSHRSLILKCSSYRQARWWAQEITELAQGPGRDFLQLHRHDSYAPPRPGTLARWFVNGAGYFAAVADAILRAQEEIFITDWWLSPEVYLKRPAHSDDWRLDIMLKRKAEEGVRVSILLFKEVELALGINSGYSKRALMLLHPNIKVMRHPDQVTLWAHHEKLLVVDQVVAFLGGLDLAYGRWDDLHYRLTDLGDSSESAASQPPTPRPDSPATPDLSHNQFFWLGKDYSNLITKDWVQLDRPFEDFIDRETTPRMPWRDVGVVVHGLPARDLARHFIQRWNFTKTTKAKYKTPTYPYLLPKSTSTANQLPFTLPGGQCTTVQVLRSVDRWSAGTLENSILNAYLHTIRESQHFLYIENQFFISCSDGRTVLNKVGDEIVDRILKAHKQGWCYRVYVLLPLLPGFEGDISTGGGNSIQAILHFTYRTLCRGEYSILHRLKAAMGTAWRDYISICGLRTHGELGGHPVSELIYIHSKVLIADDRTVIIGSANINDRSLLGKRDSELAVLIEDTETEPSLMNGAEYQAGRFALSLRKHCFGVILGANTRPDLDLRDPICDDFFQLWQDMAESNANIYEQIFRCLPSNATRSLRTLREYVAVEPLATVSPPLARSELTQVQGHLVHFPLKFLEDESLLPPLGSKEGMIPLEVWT
# Phospholipase D2 (Homo sapiens) + Phospholipase D2 (Homo sapiens), sequence (O14939 whole entry, looked up): as above
row,Structure (SMILES),remaining activity
1,C[C@@H](CN1CCC2(CC1)C(=O)NCN2c1cccc(F)c1)NC(=O)c1ccccc1I,79.4% (inactive)
2,O=C(NCCN1CCC2(CC1)C(=O)NCN2c1cccc(F)c1)c1ccc(Br)cc1,39.2%
3,C[C@@H](CN1CCC2(CC1)C(=O)NCN2c1cccc(F)c1)NC(=O)c1ccc(F)cc1F,48.2%
4,O=C(NCCN1CCC2(CC1)C(=O)NCN2c1cccc(F)c1)c1c(F)ccc(F)c1Cl,85% (inactive)
5,O=C(NCCN1CCC2(CC1)C(=O)NCN2c1cccc(F)c1)c1ccccc1I,111% (inactive)
6,C[C@@H](CN1CCC2(CC1)C(=O)NCN2c1cccc(F)c1)NC(=O)Cc1ccc(F)cc1,91.1% (inactive)
7,O=C(c1ccc(F)cc1)N(CCN1CCC2(CC1)C(=O)NCN2c1cccc(F)c1)C(=O)c1ccc(F)cc1,102% (inactive)
8,C[C@@H](CN1CCC2(CC1)C(=O)NCN2c1cccc(F)c1)NC(=O)c1cccc2ccccc12,81% (inactive)
9,C[C@@H](CN1CCC2(CC1)C(=O)NCN2c1cccc(F)c1)NC(=O)c1ccc(Cl)cc1Cl,81.5% (inactive)
10,COc1cc(C(=O)NCCN2CCC3(CC2)C(=O)NCN3c2cccc(F)c2)cc(OC)c1OC,46.7%
11,C[C@@H](CN1CCC2(CC1)C(=O)NCN2c1cccc(F)c1)NC(=O)c1ccc(F)cc1,33.3%
12,O=C(NCCN1CCC2(CC1)C(=O)NCN2c1cccc(F)c1)c1ccc(F)cc1,59.4%
13,O=C(NCCN1CCC2(CC1)C(=O)NCN2c1cccc(F)c1)c1ccc(Cl)cc1Cl,116% (inactive)
14,C[C@@H](CN1CCC2(CC1)C(=O)NCN2c1cccc(F)c1)NC(=O)c1ccc(Br)cc1,26.6%
15,C[C@@H](CN1CCC2(CC1)C(=O)NCN2c1cccc(F)c1)NC(=O)c1cccc([N+](=O)[O-])c1,74.9% (inactive)
16,O=C(NCCN1CCC2(CC1)C(=O)NCN2c1cccc(F)c1)c1ccc(F)cc1F,111% (inactive)
17,O=C(NCCN1CCC2(CC1)C(=O)NCN2c1cccc(F)c1)c1cccc([N+](=O)[O-])c1,71% (inactive)
18,C[C@@H](CN1CCC2(CC1)C(=O)NCN2c1cccc(F)c1)NC(=O)c1c(F)cccc1F,106% (inactive)
19,C[C@@H](CN1CCC2(CC1)C(=O)NCN2c1cccc(F)c1)NC(=O)c1c(F)ccc(F)c1Cl,94.8% (inactive)
20,C[C@@H](CN1CCC2(CC1)C(=O)NCN2c1cccc(F)c1)NC(=O)c1cccc(C(F)(F)F)c1,68.8% (inactive)
21,O=C(Cc1ccc(F)cc1)NCCN1CCC2(CC1)C(=O)NCN2c1cccc(F)c1,92.5% (inactive)
22,COc1cc(C(=O)N[C@@H](C)CN2CCC3(CC2)C(=O)NCN3c2cccc(F)c2)cc(OC)c1OC,34.8%
23,O=C(NCCN1CCC2(CC1)C(=O)NCN2c1cccc(F)c1)c1cccc2c1OCO2,83.3% (inactive)
24,C[C@@H](CN1CCC2(CC1)C(=O)NCN2c1cccc(F)c1)NC(=O)c1cccc(F)c1,53.3%
25,C[C@@H](CN1CCC2(CC1)C(=O)NCN2c1cccc(F)c1)NC(=O)c1ccc(F)c(F)c1,22.8%
26,O=C(NCCN1CCC2(CC1)C(=O)NCN2c1cccc(F)c1)c1cccc(C(F)(F)F)c1,107% (inactive)
27,O=C(NCCN1CCC2(CC1)C(=O)NCN2c1cccc(F)c1)c1ccccn1,99.8% (inactive)
28,O=C(NCCN1CCC2(CC1)C(=O)NCN2c1cccc(F)c1)c1cccc2ccccc12,96.3% (inactive)
